Assays:
[1] = target: human A2a adenosine receptor (Homo sapiens (Human), UniProt P29274); assay: A2a receptor affinity radioligand binding assay ([3H] SCH58261, membranes from HEK293 or CHO cells); conditions: unstarred values: radioligand binding
Method: The A2a receptor affinity binding assay measured the amount of binding of a tritiated ligand with high affinity for the A2a adenosine receptor to membranes made from HEK293 or CHO cells recombinantly expressing the human A2a adenosine receptor, in the presence of varying concentrations of a compound of the invention.
Measurement of A2a Binding Affinity Using Radioligand Binding
148 μL, (5 μg/mL) membranes (Perkin Elmer, Cat. No. RBHA2aM4001A) and 2 μL compounds of the invention to be tested (test compound) were transferred to individual wells of a 96-well polypropylene assay plate and incubated for 15 to 30 minutes at room temperature. [^3H] SCH58261 ((7-(2-phenylethyl)-5-amino-2-(2-furyl)-pyrazolo-[4,3-e]-1,2,4-triazolo[1,5-c]pyrimidine)) was diluted in assay buffer (50 mM Tris pH 7.4, 10 mM MgCl2, 0.005% Tween20) to a concentration of 4 nM and 50 μL transferred to each well of the assay plate. […] The assay plate was incubated at room temperature for 60 minutes with agitation. […] Filtering was achieved by aspirating the contents of the assay plate for 5 seconds, then washing and aspirating the contents three times with ice-cooled wash buffer (50 mM Tris-HCl pH 7.4, 150 mM NaCl) and allowing the vacuum manifold to dry the plate for 30 seconds. The filter plate was incubated for at least 1 hour at 55° C. and allowed to dry. The bottom of the filter plate was sealed with backing tape. 40 μL. […] The plate was incubated for at least 20 minutes, and then the amount of radioactivity remaining in each well was determined using a TopCown® (Perkin Elmer) scintillation counter. After normalization to total and non-specific binding, the percent effect at each compound concentration was calculated. The plot of percent effect versus the log of compound concentration was analyzed electronically using a 4-parameter logistic fit based on the Levenberg-Marquardt algorithm to generate IC50 values.

[2] = target: human A2b adenosine receptor (Homo sapiens (Human), UniProt P29275); assay: A2b radioligand filtration binding assay (tritiated proprietary A2b antagonist, HEK293 membranes); conditions: unstarred values: radioligand binding
human A2b adenosine receptor, sequence (P29275 whole entry): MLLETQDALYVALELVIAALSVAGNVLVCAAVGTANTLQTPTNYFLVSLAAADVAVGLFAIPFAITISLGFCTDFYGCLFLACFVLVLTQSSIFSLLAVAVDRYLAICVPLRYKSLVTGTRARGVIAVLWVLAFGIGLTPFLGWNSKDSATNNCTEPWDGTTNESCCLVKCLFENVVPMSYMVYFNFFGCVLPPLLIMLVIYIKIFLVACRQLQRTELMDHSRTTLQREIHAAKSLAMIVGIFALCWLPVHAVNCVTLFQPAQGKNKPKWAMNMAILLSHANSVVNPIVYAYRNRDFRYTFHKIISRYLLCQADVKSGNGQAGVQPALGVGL
Method: Measurement of A2b Binding Affinity
The reported affinity of the compounds of the invention for the human A2b adenosine receptor was determined experimentally using a radioligand filtration binding assay. This assay measures the amount of binding of a tritiated proprietary A2b receptor antagonist, in the presence and absence of a compound of the invention, to membranes made from HEK293 cells recombinantly expressing the human A2b adenosine receptor (Perkin Elmer, Cat. No. ES-013-C).
The filter plate was incubated for at least 1 hour at 55° C. and allowed to dry. The bottom of the filter plate was then sealed with backing tape. […] The plates were then incubated for at least 20 minutes, and then the amount of radioactivity remaining in each well was determined using a TopCount® (Perkin Elmer) scintillation counter. After normalization to total and non-specific binding, the percent effect at each compound concentration was calculated. The plot of percent effect versus the log of compound concentration was analyzed electronically using a 4-parameter logistic fit based on the Levenberg-Marquardt algorithm to generate IC50 values.

human A2a adenosine receptor, sequence (P29274 whole entry): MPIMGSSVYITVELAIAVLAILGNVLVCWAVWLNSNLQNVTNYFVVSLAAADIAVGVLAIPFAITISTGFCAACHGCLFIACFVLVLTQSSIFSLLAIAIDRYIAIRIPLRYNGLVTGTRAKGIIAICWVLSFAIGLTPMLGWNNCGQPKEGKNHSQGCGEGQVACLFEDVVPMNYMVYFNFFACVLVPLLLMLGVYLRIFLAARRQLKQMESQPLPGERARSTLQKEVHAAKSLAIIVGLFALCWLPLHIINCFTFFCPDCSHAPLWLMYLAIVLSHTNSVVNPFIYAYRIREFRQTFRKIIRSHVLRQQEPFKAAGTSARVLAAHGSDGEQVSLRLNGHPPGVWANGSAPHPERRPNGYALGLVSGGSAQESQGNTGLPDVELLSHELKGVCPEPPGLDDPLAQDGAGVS

Row | Compound | IC50 [1] | IC50 [2]
1 | COc1cccc2c1nc(N)n1nc([C@@H]3CCCN(c4cn(CC5(O)CCC5)nc4C)C3)nc21 [Example 32, (R)-1-((4-(3-(5-amino-7-methoxy-[1,2,4]triazolo[1,5-c]quinazolin-2-yl)piperidin-1-yl)-3-methyl-1H-pyrazol-1-yl)methyl)cyclobutan-1-ol] | 1.1 nM | 0.7 nM
2 | COc1cccc2c1nc(N)n1nc([C@@H]3CCCN(c4cnn(CC5(O)CCCCC5)c4)C3)nc21 [Example 44, (R)-1-((4-(3-(5-amino-7-methoxy-[1,2,4]triazolo[1,5-c]quinazolin-2-yl)piperidin-1-yl)-1H-pyrazol-1-yl)methyl)cyclohexan-1-ol] | 1.2 nM | 132 nM
3 | COc1cccc2c1nc(N)n1nc([C@@H]3CCCN(c4cnn([C@@H]5CCNC5)c4)C3)nc21 [Example 45, 7-methoxy-2-((R)-1-(1-((R)-pyrrolidin-3-yl)-1H-pyrazol-4-yl)piperidin-3-yl)-[1,2,4]triazolo[1,5-c]quinazolin-5-amine] | 2.6 nM | 350 nM
4 | COc1cccc2c1nc(N)n1nc([C@@H]3CCCN(c4cn(C5CCOCC5)nc4C)C3)nc21 [Example 46, (R)-7-methoxy-2-(1-(3-methyl-1-(tetrahydro-2H-pyran-4-yl)-1H-pyrazol-4-yl)piperidin-3-yl)-[1,2,4]triazolo[1,5-c]quinazolin-5-amine] | 0.4 nM | 404 nM
5 | COc1cccc2c1nc(N)n1nc([C@@H]3CCCN(c4cnn(C5CCOCC5)c4C)C3)nc21 [Example 47, (R)-7-methoxy-2-(1-(5-methyl-1-(tetrahydro-2H-pyran-4-yl)-1H-pyrazol-4-yl)piperidin-3-yl)-[1,2,4]triazolo[1,5-c]quinazolin-5-amine] | 0.1 nM | 223 nM
6 | COc1cccc2c1nc(N)n1nc([C@@H]3CCCN(c4cn(C5CCOCC5)nc4C(F)F)C3)nc21 [Example 48] | 0.6 nM | 65.5 nM
7 | COc1cccc2c1nc(N)n1nc([C@@H]3CCCN(c4cnn(C5CCOCC5)c4C(F)F)C3)nc21 [Example 49, (R)-2-(1-(5-(difluoromethyl)-1-(tetrahydro-2H-pyran-4-yl)-1H-pyrazol-4-yl)piperidin-3-yl)-7-methoxy-[1,2,4]triazolo[1,5-e]quinazolin-5-amine] | 0.2 nM | 36 nM
8 | COc1cccc2c1nc(N)n1nc([C@@H]3CCCN(c4cnn([C@H]5CCN(C)C5)c4)C3)nc21 [Example 50, 7-methoxy-2-((R)-1-(1-((S)-1-methylpyrrolidin-3-yl)-1H-pyrazol-4-yl)piperidin-3-yl)-[1,2,4]triazolo[1,5-c]quinazolin-5-amine] | 0.9 nM | 160 nM
9 | COc1cccc2c1nc(N)n1nc([C@@H]3CCCN(c4cn(C)nc4C(F)(F)F)C3)nc21 [Example 51, (R)-7-methoxy-2-(1-(1-methyl-3-(trifluoromethyl)-1H-pyrazol-4-yl)piperidin-3-yl)-[1,2,4]triazolo[1,5-c]quinazolin-5-amine] | 0.1 nM | 85.9 nM
10 | COc1cccc2c1nc(N)n1nc([C@@H]3CCCN(c4cn(CC(C)(C)O)nc4C(F)(F)F)C3)nc21 [Example 52, (R)-1-(4-(3-(5-amino-7-methoxy-[1,2,4]triazolo[1,5-c]quinazolin-2-yl)piperidin-1-yl)-3-(trifluoromethyl)-1H-pyrazol-1-yl)-2-methylpropan-2-ol] | 0.4 nM | 350 nM
11 | COc1cccc2c1nc(N)n1nc([C@@H]3CCCN(c4cn(CC(C)(C)O)nc4C(F)F)C3)nc21 [Example 53, (R)-1-(4-(3-(5-amino-7-methoxy-[1,2,4]triazolo[1,5-c]quinazolin-2-yl)piperidin-1-yl)-3-(difluoromethyl)-1H-pyrazol-1-yl)-2-methylpropan-2-ol] | 0.7 nM | 151 nM
12 | COc1cccc2c1nc(N)n1nc([C@@H]3CCCN(c4cnn(C5CCCC5OC)c4)C3)nc21 (stereo partly drawn) [Example 56, 7-methoxy-2-((3R)-1-(1-(2-methoxycyclopentyl)-1H-pyrazol-4-yl)piperidin-3-yl)-[1,2,4]triazolo[1,5-c]quinazolin-5-amine] | 0.9 nM | 175 nM
13 | COc1cccc2c1nc(N)n1nc([C@@H]3CCCN(c4nn(CC(C)(C)O)cc4C(F)(F)F)C3)nc21 [Example 62, (R)-1-(3-(3-(5-amino-7-methoxy-[1,2,4]triazolo[1,5-c]quinazolin-2-yl)piperidin-1-yl)-4-(trifluoromethyl)-1H-pyrazol-1-yl)-2-methylpropan-2-ol] | 0.3 nM | 631 nM

Second part, the compound after the results:

Row | IC50 [1] | IC50 [2] | Compound
14 | 0.4 nM | 103 nM | COc1cccc2c1nc(N)n1nc([C@@H]3CCCN(c4cn(CC(C)(C)O)nc4C)C3)nc21 [Example 30, (R)-1-(4-(3-(5-amino-7-methoxy-[1,2,4]triazolo[1,5-c]quinazolin-2-yl)piperidin-1-yl)-3-methyl-1H-pyrazol-1-yl)-2-methylpropan-2-ol]
15 | 0.1 nM | 320 nM | COc1cccc2c1nc(N)n1nc([C@@H]3CCCN(c4cnn(CC(C)(C)O)c4C)C3)nc21 [Example 33, (R)-1-(4-(3-(5-amino-7-methoxy-[1,2,4]triazolo[1,5-c]quinazolin-2-yl)piperidin-1-yl)-5-methyl-1H-pyrazol-1-yl)-2-methylpropan-2-ol]
16 | 0.7 nM | 41.9 nM | COc1cccc2c1nc(N)n1nc([C@@H]3CCCN(c4cnn([C@H]5C[C@@](C)(O)C5)c4)C3)nc21 [Example 35, (R)-3-(4-(3-(5-amino-7-methoxy-[1,2,4]triazolo[1,5-c]quinazolin-2-yl)piperidin-1-yl)-1H-pyrazol-1-yl)-1-methylcyclobutan-1-ol]
17 | 1.8 nM | 1.7 nM | CCNC(=O)C(C)(C)n1cc(N2CCC[C@@H](c3nc4c5cccc(OC)c5nc(N)n4n3)C2)cn1 [Example 36, (R)-2-(4-(3-(5-amino-7-methoxy-[1,2,4]triazolo[1,5-c]quinazolin-2-yl)piperidin-1-yl)-1H-pyrazol-1-yl)-N-ethyl-2-methylpropanamide]
18 | 1.5 nM | 10.7 nM | COc1cccc2c1nc(N)n1nc([C@@H]3CCCN(c4cnn(C(C)(C)C(=O)NC5CCC5)c4)C3)nc21 [Example 37, (R)-2-(4-(3-(5-amino-7-methoxy-[1,2,4]triazolo[1,5-c]quinazolin-2-yl)piperidin-1-yl)-1H-pyrazol-1-yl)-N-cyclobutyl-2-methylpropanamide]
19 | 4.1 nM | 1.4 nM | COc1cccc2c1nc(N)n1nc([C@@H]3CCCN(c4cnn(C(C)(C)C(=O)NC(C)C)c4)C3)nc21 [Example 38, (R)-2-(4-(3-(5-amino-7-methoxy-[1,2,4]triazolo[1,5-c]quinazolin-2-yl)piperidin-1-yl)-1H-pyrazol-1-yl)-N-isopropyl-2-methylpropanamide]
20 | 1.2 nM | 3.5 nM | COc1cccc2c1nc(N)n1nc([C@@H]3CCCN(c4cnn([C@@H]5CCCC[C@]5(C)O)c4)C3)nc21 [Example 42, (1S,2R)-2-(4-((R)-3-(5-amino-7-methoxy-[1,2,4]triazolo[1,5-c]quinazolin-2-yl)piperidin-1-yl)-1H-pyrazol-1-yl)-1-methylcyclohexan-1-ol]
21 | 0.5 nM | 1.9 nM | COc1cccc2c1nc(N)n1nc([C@@H]3CCCN(c4cnn([C@H]5CCCC[C@]5(C)O)c4)C3)nc21 [Example 43, (1S,2S)-2-(4-((R)-3-(5-amino-7-methoxy-[1,2,4]triazolo[1,5-c]quinazolin-2-yl)piperidin-1-yl)-1H-pyrazol-1-yl)-1-methylcyclohexan-1-ol]
22 | 0.4 nM | 16.3 nM | COc1cccc2c1nc(N)n1nc([C@@H]3CCCN(c4cnn(C(C)(C)CO)c4)C3)nc21 [Example 54, (R)-2-(4-(3-(5-amino-7-methoxy-[1,2,4]triazolo[1,5-c]quinazolin-2-yl)piperidin-1-yl)-1H-pyrazol-1-yl)-2-methylpropan-1-ol]
23 | 1.5 nM | 4.7 nM | COc1cccc2c1nc(N)n1nc([C@@H]3CCCN(c4cn[nH]c4)C3)nc21 [Example 55]
24 | 0.2 nM | 64.9 nM | COc1cccc2c1nc(N)n1nc([C@@H]3CCCN(c4cnn(C5CCCC5O)c4)C3)nc21 (stereo partly drawn) [Example 58A]
